Measured values taken from patent publication US11566007B2, “Ras inhibitors” (Revolution Medicines, Inc., priority 2019, dated 2023).

Assays:
KRAS G12D = KRAS G12D (Homo sapiens (Human), UniProt P01116+P62937, G12D); test: Ras-Raf (BRAF RBD) disruption / FRET / MOA assay, KRAS G12D; type: biochemical; conditions: Ras-Raf disruption/FRET/MOA assay; class symbols; read-out: KRAS G12D FRET data IC50
How it was run: (§1)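 Compound-driven ternary complex of nucleotide-loaded Ras with cyclophilin A, disrupting BRAF RBD binding. 10-point 3-fold dilution from 30 μM final, 3 h at 25° C, then anti-His Eu-W1024 (10 nM) and anti-GST allophycocyanin (50 nM) for 1.5 h. IC50 from TR-FRET ratio decrease versus DMSO.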

KRAS WT = KRAS WT (Homo sapiens (Human), UniProt P01116+P62937); test: Ras-Raf (BRAF RBD) disruption / FRET / MOA assay, KRAS WT; type: biochemical; conditions: read-out: IC50* KRAS WT FRET data
Chain of KRAS WT (P01116-2 other isoform, or with tags, fused parts or gaps): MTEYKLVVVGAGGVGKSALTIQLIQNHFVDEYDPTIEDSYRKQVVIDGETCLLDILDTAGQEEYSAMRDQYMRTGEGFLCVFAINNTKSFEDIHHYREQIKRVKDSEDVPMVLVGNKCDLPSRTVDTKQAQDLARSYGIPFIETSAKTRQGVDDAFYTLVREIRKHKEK
Chain of KRAS WT (P62937 whole entry): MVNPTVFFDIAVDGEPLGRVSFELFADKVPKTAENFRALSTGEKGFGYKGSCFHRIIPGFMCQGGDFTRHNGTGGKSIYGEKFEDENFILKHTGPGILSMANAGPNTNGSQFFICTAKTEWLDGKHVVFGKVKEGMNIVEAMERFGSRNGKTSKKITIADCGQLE
How it was run: as §1

NCI-H358 (K-Ras G12C) = test: CellTiter-Glo cell viability assay, NCI-H358; type: cell-based, human; conditions: Homo sapiens, NCI-H358, 120 h, NCI-H358, 5-day treatment; class symbols; read-out: Additional H358 Cell Viability assay data (K-Ras G12C, IC50)
How it was run: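 Luminescent viability readout on day 5 after direct compound addition to plated cells; plates sat ~30 min at room temperature before reading. Values expressed as percent of mean DMSO signal, curves fit with a four-parameter logistic model.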

NRAS Q61K = NRAS Q61K (Homo sapiens (Human), UniProt P01111+P62937, Q61K); test: Ras-Raf (BRAF RBD) disruption / FRET / MOA assay, NRAS Q61K; type: biochemical; conditions: NRAS Q61K; Ras-Raf disruption/FRET/MOA assay; read-out: IC50* NRAS Q61K FRET data
Chain of NRAS Q61K (P01111 whole entry Q61K): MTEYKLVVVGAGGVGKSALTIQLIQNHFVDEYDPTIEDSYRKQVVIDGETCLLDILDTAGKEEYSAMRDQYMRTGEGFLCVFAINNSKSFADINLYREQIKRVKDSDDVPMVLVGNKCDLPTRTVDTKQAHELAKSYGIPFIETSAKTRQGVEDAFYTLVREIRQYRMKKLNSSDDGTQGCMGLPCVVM
Chain of NRAS Q61K (P62937 whole entry): as the sequence (P62937 whole entry) above
How it was run: (§2)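 Compounds (30 μM top final, 10-point 3-fold dilutions) incubated 3 h at 25° C with nucleotide-loaded Ras, cyclophilin A and BRAF RBD. Detection with 10 nM anti-His Eu-W1024 and 50 nM anti-GST allophycocyanin over another 1.5 h. Lowered TR-FRET ratio relative to DMSO wells gives IC50.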

KRAS Q61H = KRAS Q61H (Homo sapiens (Human), UniProt P01116+P62937, Q61H); test: Ras-Raf (BRAF RBD) disruption / FRET / MOA assay, KRAS Q61H; type: biochemical; conditions: Ras-Raf disruption/FRET/MOA assay; class symbols; read-out: KRAS Q61H FRET data IC50
Chain of KRAS Q61H (P01116-2 other isoform, or with tags, fused parts or gaps Q61H): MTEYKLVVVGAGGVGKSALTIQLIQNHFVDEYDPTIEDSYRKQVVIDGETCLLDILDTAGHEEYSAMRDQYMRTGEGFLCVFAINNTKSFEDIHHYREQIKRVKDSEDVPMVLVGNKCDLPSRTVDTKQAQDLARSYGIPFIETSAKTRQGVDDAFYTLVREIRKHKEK
Chain of KRAS Q61H (P62937 whole entry): as the sequence (P62937 whole entry) above
How it was run: as §2

K-Ras G13C = K-Ras G13C (Homo sapiens (Human), UniProt P01116+P62937, G13C); test: Ras-Raf (BRAF RBD) disruption / FRET / MOA assay, KRAS G13C; type: biochemical; conditions: KRAS G13C; Ras-Raf disruption/FRET/MOA assay; read-out: IC50* KRAS G13C FRET data
Chain of K-Ras G13C (P01116-2 other isoform, or with tags, fused parts or gaps G13C): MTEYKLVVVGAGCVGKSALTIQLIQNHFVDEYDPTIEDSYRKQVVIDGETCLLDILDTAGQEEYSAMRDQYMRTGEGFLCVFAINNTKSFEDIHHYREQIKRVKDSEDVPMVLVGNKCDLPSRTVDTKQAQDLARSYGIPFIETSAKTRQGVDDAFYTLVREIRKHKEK
Chain of K-Ras G13C (P62937 whole entry): as the sequence (P62937 whole entry) above
How it was run: as §1

NRAS Q61R = NRAS Q61R (Homo sapiens (Human), UniProt P01111+P62937, Q61R); test: Ras-Raf (BRAF RBD) disruption / FRET / MOA assay, NRAS Q61R; type: biochemical; conditions: NRAS Q61R; Ras-Raf disruption/FRET/MOA assay; read-out: IC50* NRAS Q61R FRET data
Chain of NRAS Q61R (P01111 whole entry Q61R): as the sequence (P01111 whole entry Q61K) above, with K61R counted along it
Chain of NRAS Q61R (P62937 whole entry): as the sequence (P62937 whole entry) above
How it was run: as §2

Chain of KRAS G12D (P01116-2 other isoform, or with tags, fused parts or gaps G12D): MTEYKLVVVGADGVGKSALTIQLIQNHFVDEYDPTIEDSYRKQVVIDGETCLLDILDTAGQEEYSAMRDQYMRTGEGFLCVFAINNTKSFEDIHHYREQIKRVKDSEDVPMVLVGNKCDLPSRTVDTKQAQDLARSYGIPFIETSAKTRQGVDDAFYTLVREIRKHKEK
Chain of KRAS G12D (P62937 whole entry): as the sequence (P62937 whole entry) above

Row | Compound | IC50 (KRAS G12D) [nM] | IC50 (KRAS WT) [nM] | IC50 (NCI-H358 (K-Ras G12C)) [nM] | IC50 (NRAS Q61K) [nM] | IC50 (KRAS Q61H) [nM] | IC50 (K-Ras G13C) [nM] | IC50 (NRAS Q61R) [nM]
1 | C=CC(=O)N1CCC2(CCCN(C(=O)N(C)[C@H](C(=O)N[C@H]3Cc4nc(cs4)-c4ccc5c(c4)c(c(-c4cccnc4[C@H](C)OC)n5CC)CC(C)(C)COC(=O)[C@@H]4CCCN(N4)C3=O)C(C)C)C2)CC1 (atropisomer, axis not shown) [Example A696] | 100 to 1000 | 100 to 1000 | 100 to 1000 | 10 to 100 | 10 to 100 | 100 to 1000 | 100 to 1000
2 | CCn1c(-c2cccnc2[C@H](C)OC)c2c3cc(ccc31)-c1cccc(c1)C[C@H](NC(=O)[C@@H](COC1CN(C(=O)C#CC(C)(C)O)C1)C(C)C)C(=O)N1CCC[C@H](N1)C(=O)OCC(C)(C)C2 (atropisomer, axis not shown) [Example A708] | > 10000 | 1000 to 10000 | 10 to 100 | > 10000 | 1000 to 10000 | 1000 to 10000 | > 10000
3 | CCn1c(-c2cccnc2[C@H](C)OC)c2c3cc(ccc31)-c1csc(n1)C[C@H](NC(=O)[C@H](C(C)C)N(C)C(=O)N1CCN(C(=O)/C=C/CN(C)C)C[C@@H]1C)C(=O)N1CCC[C@H](N1)C(=O)OCC(C)(C)C2 (atropisomer, axis not shown) [Example A709] | 100 to 1000 | 100 to 1000 | 10 to 100 | 10 to 100 | 10 to 100 | 100 to 1000 | 100 to 1000
4 | CCn1c(-c2cccnc2[C@H](C)OC)c2c3cc(ccc31)-c1csc(n1)C[C@H](NC(=O)[C@H](C(C)C)N(C)C(=O)N1CC(N(C)C(=O)/C=C/CN(C)C)C1)C(=O)N1CCC[C@H](N1)C(=O)OCC(C)(C)C2 (atropisomer, axis not shown) [Example A710] | 100 to 1000 | 100 to 1000 | 10 to 100 | 10 to 100 | 10 to 100 | 100 to 1000 | 100 to 1000
5 | C=C(OC)C(=O)N1CC(N(C)C(=O)N(C)[C@H](C(=O)N[C@H]2Cc3nc(cs3)-c3ccc4c(c3)c(c(-c3cccnc3[C@H](C)OC)n4CC)CC(C)(C)COC(=O)[C@@H]3CCCN(N3)C2=O)C(C)C)C1 (atropisomer, axis not shown) [Example A713] | 1000 to 10000 | 100 to 1000 | 10 to 100 | 100 to 1000 | 100 to 1000 | 1000 to 10000 | 100 to 1000
6 | C=CC(=O)N1CC[C@H](C(=O)N(C)[C@H](C(=O)N[C@H]2CN3CCC=C(C3)c3ccc4c(c3)c(c(-c3cccnc3[C@H](C)OC)n4CC)CC(C)(C)COC(=O)[C@@H]3CCCN(N3)C2=O)C(C)C)C1 (atropisomer, axis not shown) [Example A716, (3S)-1-acryloyl-N-((2S)-1-(((6^3S,4S)-1^1-ethyl-1^2-(2-((S)-1-methoxyethyl)pyridin-3-yl)-10,10-dimethyl-5,7-dioxo-2^1,2^2,2^3,2^6,6^1,6^2,6^3,6^4,6^5,6^6-decahydro-1^1H-8-oxa-1(5,3)-indola-6(1,3)-pyridazina-2(5,1)-pyridinacycloundecaphane-4-yl)amino)-3-methyl-1-oxobutan-2-yl)-N-methylpyrrolidine-3-carboxamide] | > 10000 | 1000 to 10000 | 10 to 100 | > 10000 | 1000 to 10000 | 1000 to 10000 | > 10000
7 | CCn1c(-c2cccnc2[C@H](C)OC)c2c3cc(ccc31)-c1nc(nn1C)C[C@H](NC(=O)[C@@H](COC1CN(C(=O)C#CC(C)(C)N(C)C)C1)C(C)C)C(=O)N1CCC[C@H](N1)C(=O)OCC(C)(C)C2 (atropisomer, axis not shown) [Example A720, (2R)-2-(((1-(4-(dimethylamino)-4-methylpent-2-ynoyl)azetidin-3-yl)oxy)methyl)-N-((6^3S,4S,Z)-1^1-ethyl-1^2-(2-((S)-1-methoxyethyl)pyridin-3-yl)-2^1,10,10-trimethyl-5,7-dioxo-6^1,6^2,6^3,6^4,6^5,6^6-hexahydro-1^1H,2^1H-8-oxa-1(5,3)-indola-6(1,3)-pyridazina-2(5,3)-triazolacycloundecaphane-4-yl)-3-methylbutanamide] | > 10000 | 1000 to 10000 | 10 to 100 | 1000 to 10000 | 1000 to 10000 | 1000 to 10000 | 1000 to 10000
8 | C=CC(=O)N1CCC(F)(C(=O)N(C)[C@H](C(=O)N[C@H]2C[C@H]3CN(CCO3)c3ccc4c(c3)c(c(-c3cccnc3[C@H](C)OC)n4CC)CC(C)(C)COC(=O)[C@@H]3CCCN(N3)C2=O)C(C)C)CC1 (atropisomer, axis not shown) [Example A722, 1-acryloyl-N-((2S)-1-(((6^3S,4S)-1^1-ethyl-1^2-(2-((S)-1-methoxyethyl)pyridin-3-yl)-10,10-dimethyl-5,7-dioxo-6^1,6^2,6^3,6^4,6^5,6^6-hexahydro-1^1H-8-oxa-2(4,2)-morpholina-1(5,3)-indola-6(1,3)-pyridazinacycloundecaphane-4-yl)amino)-3-methyl-1-oxobutan-2-yl)-4-fluoro-N-methylpiperidine-4-carboxamide] | 1000 to 10000 | 100 to 1000 | 10 to 100 | 1000 to 10000 | 1000 to 10000 | 100 to 1000 | 1000 to 10000
9 | C=CC(=O)N1CC(OC[C@H](C(=O)N[C@H]2C[C@H]3CN(CCO3)c3ccc4c(c3)c(c(-c3cccnc3[C@H](C)OC)n4CC(F)(F)F)CC(C)(C)COC(=O)[C@@H]3CCCN(N3)C2=O)C(C)C)C1 (atropisomer, axis not shown) [Example A723] | > 10000 | 1000 to 10000 | 10 to 100 | > 10000 | 1000 to 10000 | 1000 to 10000 | > 10000
10 | CCn1c(-c2cccnc2[C@H](C)OC)c2c3cc(ccc31)-c1csc(n1)C[C@H](NC(=O)[C@H](C(C)C)N(C)C(=O)N(C)C1CN(C(=O)/C=C/[C@H]3CCCN3C)C1)C(=O)N1CCC[C@H](N1)C(=O)OCC(C)(C)C2 (atropisomer, axis not shown) [Example A729] | 1000 to 10000 | 100 to 1000 | 100 to 1000 | 100 to 1000 | 100 to 1000 | 100 to 1000 | 1000 to 10000
11 | CCn1c(-c2cccnc2[C@H](C)OC)c2c3cc(ccc31)-c1csc(n1)C[C@H](NC(=O)[C@H](C(C)C)N(C)C(=O)N(C)C1CN(C(=O)/C=C/[C@@H]3CCCN3C)C1)C(=O)N1CCC[C@H](N1)C(=O)OCC(C)(C)C2 (atropisomer, axis not shown) [Example A730] | 1000 to 10000 | 100 to 1000 | 10 to 100 | 100 to 1000 | 100 to 1000 | 100 to 1000 | 1000 to 10000
12 | CC#CC(=O)N1CC(N(C)C(=O)N(C)[C@H](C(=O)N[C@H]2Cc3nc(cs3)-c3ccc4c(c3)c(c(-c3cccnc3[C@H](C)OC)n4CC)CC(C)(C)COC(=O)[C@@H]3CCCN(N3)C2=O)C(C)C)C1 (atropisomer, axis not shown) [Example A731] | 1000 to 10000 | 100 to 1000 | 100 to 1000 | 100 to 1000 | 100 to 1000 | 100 to 1000 | 1000 to 10000
13 | C=C(F)C(=O)N1CC(N(C)C(=O)N(C)[C@H](C(=O)N[C@H]2Cc3nc(cs3)-c3ccc4c(c3)c(c(-c3cccnc3[C@H](C)OC)n4CC)CC(C)(C)COC(=O)[C@@H]3CCCN(N3)C2=O)C(C)C)C1 (atropisomer, axis not shown) [Example A732] | 1000 to 10000 | 100 to 1000 | 10 to 100 | 100 to 1000 | 100 to 1000 | 100 to 1000 | 100 to 1000
